From patent publication US7189731B2, “Substituted 7-azaquinazoline compounds useful as p38 kinase inhibitors” (Roche Palo Alto LLC, priority 2003, dated 2007)

Columns and labels:
p38 MAP kinase = molecular target: T1, p38 MAP kinase (Homo sapiens, UniProt Q16539); test: Inhibition of p38 (MAP) Kinase-In Vitro Assay; assay type: biochemical; settings: approximate p38 inhibitory activities; concentration causing 50% inhibition of the p38 enzyme; γ-33P-ATP transfer to MBP; read-out: IC50 μM (P38 MAP KINASE E-03)
T1 construct: made in house; host or cells: E. coli (co-expressed with SEK-1 and MEKK)
Experimental: The p-38 MAP kinase inhibitory activity of compounds of this invention in vitro was determined by measuring the transfer of the y-phosphate from γ-^33P-ATP by p38 kinase to Myelin Basic Protein (MBP), using the a minor modification of the method described in Ahn et al., J. Biol. Chem., Vol. 266 (7), 4220–4227 (1991).
The phosphorylated form of the recombinant p38 MAP kinase was expressed with SEK-1 and MEKK in E. Coli (see Khokhlatchev et al., J. Biol. Chem. Vol. 272(17), pp. 11057–11062 (1997)), and then purified by affinity chromatography using a Nickel column.
The phosphorylated p38 MAP kinase was diluted in kinase buffer (20 mM 3-(N-morpholino)propanesulfonic acid, pH 7.2, 25 mM β-glycerol phosphate, 5 mM ethylene glycol-bis(beta-aminoethyl ether)-N,N,N′,N′-tetraacetic acid, 1 mM sodium vanadate, 1 mM dithiothreitol, 40 mM magnesium chloride). Test compound dissolved in DMSO or only DMSO (control) was added, and the samples were incubated for 10 min. at 30° C. The kinase reaction was initiated by the addition of a substrate cocktail containing MBP and γ-^33P-ATP. After incubating for an additional 20 min. at 30° C., the reaction was terminated by adding 0.75% phosphoric acid. The phosphorylated MBP was then separated from the residual γ-^33P-ATP using a phosphocellulose membrane (Millipore, Bedfrod, Mass.) and quantitated using a scintillation counter (Packard, Meriden, Conn.).

T1 sequence (Q16539 whole entry): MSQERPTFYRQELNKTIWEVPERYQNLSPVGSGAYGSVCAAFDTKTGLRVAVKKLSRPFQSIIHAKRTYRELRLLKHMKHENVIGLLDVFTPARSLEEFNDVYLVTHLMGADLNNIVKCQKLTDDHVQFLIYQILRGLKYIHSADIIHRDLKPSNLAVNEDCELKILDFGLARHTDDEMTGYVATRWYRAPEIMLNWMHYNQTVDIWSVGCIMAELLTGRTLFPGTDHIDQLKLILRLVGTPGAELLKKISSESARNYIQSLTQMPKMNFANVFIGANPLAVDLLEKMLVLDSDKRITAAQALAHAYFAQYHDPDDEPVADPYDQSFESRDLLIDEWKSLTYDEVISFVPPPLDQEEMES

melting point | IC50 (p38 MAP kinase) | Compound
209.9 to 211.9 °C | < 0.05 µM | CS(=O)(=O)N1CCC(Nc2ncc3cc(Oc4ccc(F)cc4F)ncc3n2)CC1 [Example 1, [6-(2,4-Difluoro-phenoxy)-pyrido[3,4-d]pyrimidin-2-yl]-(1-methanesulfonyl-piperidin-4-yl)-amine]
 | < 0.5 µM | CC(C)Nc1ncc2cc(Oc3ccc(F)cc3F)ncc2n1 [Example 2, [6-(2,4-Difluoro-phenoxy)-pyrido[3,4-d]py-rimidin-2-yl]-iso-propyl-amine]
 | < 0.3 µM | Fc1ccc(Oc2cc3cnc(NC4CCOCC4)nc3cn2)c(F)c1 [Example 4, [6-(2,4-Difluoro-phenoxy)-pyrido[3,4-d]py-rimidin-2-yl]-(tet-rahydro-pyran-4-yl)-amine]
